Data reported in paper PMC7482066, “Unstable Mechanisms of Resistance to Inhibitors of Escherichia coli Lipoprotein Signal Peptidase” (mBio, 2020).

How the values were obtained:
E. coli MG1655 ΔtolC = experiment: MIC; type: cell-based; conditions: E. coli MG1655 WT vs MG1655 ΔtolC
Protocol: MICs of compounds in each strain were determined in cation-adjusted Mueller-Hinton II (MHII) broth or MHII agar according to the Clinical and Laboratory Standards Institute protocol (CLSI 2006). To measure the effect of protein binding on activity, MIC assays were performed in the presence of 50% heat-inactivated human serum. The serum killing assay was performed as described previously ([43]). FOR assays and growth on plates containing G0790 were always performed on MHII agarose plates.

E. coli CFT073 imp4213 = experiment: Frequency of resistance (FOR); type: cell-based; conditions: 4× MIC, MHII agarose
Protocol: Frequencies of resistance (FORs) of G0790 were determined for E. coli CFT073, E. cloacae (ATCC 13047), and K. pneumoniae (ATCC 700603) as previously published ([70]). To determine the FOR, 3 to 4 colonies of the strain to be tested were picked from a fresh plate and diluted to an optical density at 600 nm (OD600) of 0.00001 in 1 ml of cation-adjusted MHBII. Ten independent 5-ml cultures in MHBII were prepared by inoculating 5 μl (approximately 1 × 10^3 CFU) and incubated at 37°C for 18 h. The bacteria were pelleted by centrifugation at 4000 × g at 4°C for 15 min and resuspended in 0.5 ml fresh MHBII. Two hundred fifty microliters of the bacterial suspension was plated evenly on MHII agarose plates containing globomycin or G0790 at a final concentration of 4× and 8× MIC. In parallel, CFU from each independent culture was measured by spotting 10-fold serial dilutions on MHII agar plates and incubated at 37°C for 18 h. Colonies were counted at days 1, 2, and 3 postinoculation. FOR was calculated as the ratio of the total number of resistant colonies relative to the total CFU plated. For strains that had no resistant colonies growing on plates, the p0 method was used to calculate the FOR (FOR = m/total CFU plated, where m = −ln p0 and p0 is the proportion of cultures with no mutants; 0.7 ≥ p0 ≥ 0.1), as described previously ([71]). Colonies were picked and resuspended in 30 μl MHBII broth medium, and 10 μl was plated on an MHII agar plate containing G0790 to be used to determine the MIC. Of the remaining 20 μl, half was used to inoculate 1.5 ml MHBII broth medium containing G0790 and grown at 37°C for 18 h to generate cell lysates for Western blot analysis, isolate genomic DNA (gDNA) for whole-genome sequencing, and for frozen glycerol stocks.

E. coli CFT073 = experiment: Bactericidal activity, CFU over time; type: cell-based; conditions: G0790 at 2× MIC, two independent experiments in duplicates
Lpp = conditions: in words; cited from earlier work
From the text: We confirmed that the increase in potency against WT bacterial strains was specific to LspA by using multiple parallel approaches. […] Third, like GBM, G0790 is bactericidal, a ...

LspA = conditions: cited from earlier work; for LspA inhibition, mode: in words
From the text: Bacterial lipoprotein biosynthesis is an attractive target for novel antibiotic drug discovery, as bacterial lipoproteins play critical roles in adhesion, nutrient uptake, antibiotic resistance, virulence, invasion, and immune evasion ([14]). Lipoprotein biosynthesis in Gram-negative bacteria is mediated by three essential inner membrane-localized enzymes ([14]), which work sequentially to generate the mature triacylated lipoproteins. The second enzyme in the pathway, prolipoprotein signal peptidase (LspA), is an aspartyl endopeptidase which cleaves off the signal peptide N-terminal to a conse ... || Our efforts to identify potent GBM analogs were driven by whole bacterial cell activity assays due to the low translatability of in vitro biochemical activity ([34], [35]).

[1] = system: wild-type (WT) Gram-negative bacteria; conditions: in words; cited from earlier work
From the text: Therefore, with the goal of increasing GBM whole-cell potency through medicinal chemistry optimization, we identified G0790 as an analog with increased growth inhibitory activity against multiple Gram-negative bacterial species ([36]). G0790 contains (S)-2,3-diaminopropionic acid (Dap), cyclohexylglycine (Chg), and N-methyl ...

[2] = system: lspA-overexpressing or lpp-deleted bacteria; conditions: in words, cited from earlier work

SMILES	WT/tolC MIC shift (E. coli MG1655 ΔtolC) [fold]	FOR (frequency of resistance) (E. coli CFT073 imp4213)	Bactericidal activity (E. coli CFT073)	Accumulation of peptidoglycan-associated Lpp in the inner membrane (Lpp)	LspA inhibition, mode (LspA)	Ki (LspA; previously described by Dev et al.) [nM]	Growth inhibition of WT Gram-negative bacteria [1]	Effect of plasmid-based lspA overexpression [2]	Effect of complete Lpp deletion ([2]; previous finding, ref as printed: none in abstract)
CCCCCC[C@H]1OC(=O)CNC(=O)[C@H]([C@H](C)O)NC(=O)[C@H](CO)NC(=O)[C@H]([C@H](C)CC)NC(=O)[C@H](CC(C)C)N(C)C(=O)[C@@H]1C [GBM, globomycin]	~128	1.4 × 10^−9	bactericidal	accumulation of the peptidoglycan-associated form of Lpp in the inner membrane	inhibit LspA function by targeting the catalytic dyad aspartic acid residues	36	weak growth inhibition	confer resistance	leads to globomycin resistance
CCCC1OC(=O)C(C)CC(C)CCCCC(=O)CCCC(CC)/C=C/C=C(\COC)CCC(O)C(O)CC(O)CNC1=O (centres unmarked) [myxovirescin]					inhibit LspA function by targeting the catalytic dyad aspartic acid residues			confer resistance	
